# In patent US20250352608A1, “POLYPEPTIDES HAVING ANTI-INFLAMMATORY EFFECTS AND USES THEREOF” (OneSkin, Inc., priority 2020, published 2025):
# Experiments:
# [1] = system: peripheral blood mononuclear cells (PBMCs); assay: PBMC proliferation with PHA activation (MTT); type: cell-based, human; details: single agent, 5 days (Peptide 14 3.12 μM; rapamycin 100 nM; PHA 5 μg/mL)
# Description: The effect of Peptide 14 on T cell activation was assessed by treating PBMCs stimulated with phytohaemagglutinin (PHA) with Peptide 14. PHA usually can trigger lymphocyte activation and cell division. PBMCs that were untreated with PHA or Peptide 14 served as negative control of lymphocyte activation. In the phytohaemagglutinin group, the PBMCs were activated with 5 μg/mL of PHA for 5 days. In the Peptide 14 and PHA group, the PBMCs were activated with 5 μg/mL of PHA and treated with 3.12 μM of Peptide 14 for 5 days. In the Peptide 14 group, the PBMCs were treated with 3.12 μM of Peptide 14 for 5 days. In the rapamycin group, the PBMCs were treated with 100 nM of rapamycin, a well-known immunosuppressive drug for 5 days. In the rapamycin+PHA group, the PBMCs were activated with 5 μg/mL of PHA and treated with 100 nM of rapamycin for 5 days. The viability and proliferation of PBMCs were analyzed by MTT assay. Briefly, after 5 days of treatment, the cells were incubated with […] MTT reagent for 4 hours. Then, 100 μL of DMSO was added into each well, and the absorbance was detected at 595 nm.
# [2] = system: peripheral blood mononuclear cells (PBMCs); assay: PBMC mRNA of IFN-γ and IL-10 (RT-qPCR); type: cell-based, human; details: single agent, 5 days (Peptide 14 3.12 μM; rapamycin 100 nM; PHA 5 μg/mL)
# Description: The effect of Peptide 14 on T cell activation was assessed by treating PBMCs stimulated with phytohaemagglutinin (PHA) with Peptide 14. PHA usually can trigger lymphocyte activation and cell division. PBMCs that were untreated with PHA or Peptide 14 served as negative control of lymphocyte activation. In the phytohaemagglutinin group, the PBMCs were activated with 5 μg/mL of PHA for 5 days. In the Peptide 14 and PHA group, the PBMCs were activated with 5 μg/mL of PHA and treated with 3.12 μM of Peptide 14 for 5 days. In the Peptide 14 group, the PBMCs were treated with 3.12 μM of Peptide 14 for 5 days. In the rapamycin group, the PBMCs were treated with 100 nM of rapamycin, a well-known immunosuppressive drug for 5 days. In the rapamycin+PHA group, the PBMCs were activated with 5 μg/mL of PHA and treated with 100 nM of rapamycin for 5 days. […] IFN-γ is typically produced in lymphocytes stimulated by PHA and may be used as marker of PBMC stimulation level. IL-10 is an anti-inflammatory cytokine. The cells from each of the experimental groups were processed for total RNA isolation, reverse transcription of the RNA and RT-qPCR. Data is represented as relative expression normalized to ubiquitous gene expression and untreated PBMC negative control.
substance,measurement,setting,value
phytohaemagglutinin [PHA],"relative PBMC proliferation, % of negative control",[1],about 130%
same,relative expression level of IFN-γ vs negative control,[2],about 15 fold
same,relative expression level of IL-10 (negative control = 1),[2],near zero
